Results: patent publication US10882844B2, “Compounds useful as immunomodulators” (Bristol-Myers Squibb Company, priority 2016, dated 2021)
Read-outs that look alike come from different tables or passages of the source.

Target: PD-1/PD-L1 (Homo sapiens (Human), UniProt Q9NZQ7)
Assay: PD-1/PD-L1 Homogenous Time-Resolved Fluorescence (HTRF) binding assay
Conditions: PD-1-Ig / PD-L1-His HTRF, read-out: Range or IC50
Excerpt: The ability of the compounds of formula (I) to bind to PD-L1 was investigated using a PD-1/PD-L1 Homogenous Time-Resolved Fluorescence (HTRF) binding assay.
Homogenous Time-Resolved Fluorescence (HTRF) binding assay.
The interaction of PD-1 and PD-L1 can be assessed using soluble, purified preparations of the extracellular domains of the two proteins. The PD-1 and PD-L1 protein extracellular domains were expressed as fusion proteins with detection tags, for PD-1, the tag was the Fc portion of Immunoglobulin (PD-1-Ig) and for PD-L1 it was the 6 histidine motif (PD-L1-His). All binding studies were performed in an HTRF assay buffer consisting of dPBS supplemented with 0.1% […] bovine serum albumin and 0.05% (v/v) Tween-20. For the h/PD-L1-His binding assay, inhibitors were pre-incubated with PD-L1-His (10 nM final) for 15 m in 4 μl of assay buffer, followed by addition of PD-1-Ig (20 nM final) in 1 μl of assay buffer and further incubation for 15 m. HTRF detection was achieved using europium crypate-labeled anti-Ig (1 nM final) and allophycocyanin (APC) labeled anti-His (20 nM final). Antibodies were diluted in HTRF detection buffer and 5 μl was dispensed on top of the binding reaction. The reaction mixture was allowed to equilibrate for 30 minutes and the resulting signal (665 nm/620 nm ratio) was obtained using an EnVision fluorometer. Additional binding assays were established between the human proteins PD-1-Ig/PD-L2-His (20 & 5 nM, respectively) and CD8O-His/PD-L1-Ig (100 & 10 nM, respectively).
Recombinant Proteins: Human PD-1 (25-167) with a C-terminal human Fc domain of immunoglobulin G (Ig) epitope tag [hPD-1 (25-167)-3S-IG] and human PD-L1 (18-239) with a C-terminal His epitope tag [hPD-L1(18-239)-TVMV-His] were expressed in HEK293T cells and purified sequentially by ProteinA affinity chromatography and size exclusion chromatography. Human PD-L2-His and CD80-His was obtained through commercial sources.
The table below lists the IC50 values for representative examples of this disclosure measured in the PD-1/PD-L1 Homogenous Time-Resolved Fluorescence (HTRF) binding assay. Ranges are as follows: A=0.18 nM-0.99 nM; B=1.0 nM-5.0 nM; C=5.01 nM-10.1 nM; D=10.2 nM-200 nM; E=201 nM→10 uM

Sequence of PD-1/PD-L1 (Q9NZQ7 other isoform, or with tags, fused parts or gaps): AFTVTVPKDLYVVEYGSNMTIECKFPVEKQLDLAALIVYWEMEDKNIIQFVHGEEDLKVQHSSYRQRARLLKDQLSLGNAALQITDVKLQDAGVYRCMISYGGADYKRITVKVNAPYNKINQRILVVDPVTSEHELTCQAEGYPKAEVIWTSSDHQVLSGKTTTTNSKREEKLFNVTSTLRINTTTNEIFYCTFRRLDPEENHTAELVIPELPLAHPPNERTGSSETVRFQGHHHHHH

IC50 (value given as range class) [nM] | IC50 (value given as number) [nM] | SMILES
5.01 to 10.1 | – | Cc1c(COc2cc(OCc3cncc(C#N)c3)c(CN3CCCC[C@H]3C(=O)O)cc2Cl)cccc1-c1ccc2oc(N3C[C@@H]4C[C@H]3CN4C)nc2c1 [Example 2002, (S)-1-(5-chloro-2-((5-cyanopyridin-3-yl)methoxy)-4-((2-methyl-3-(2-((1S,4S)-5-methyl-2,5-diazabicyclo[2.2.1]heptan-2-yl)benzo[d]oxazol-5-yl)benzyl)oxy)benzyl)piperidine-2-carboxylic Acid]
1 to 5 | – | Cc1c(COc2cc(OCc3cncc(C#N)c3)c(CN3CCCC[C@H]3C(=O)O)cc2Cl)cccc1-c1ccc2oc(N3CCN(C)CC3)nc2c1 [Example 2007, (S)-1-(5-chloro-2-((5-cyanopyridin-3-yl)methoxy)-4-((2-methyl-3-(2-(4-methylpiperazin-1-yl)benzo[d]oxazol-5-yl)benzyl)oxy)benzyl)piperidine-2-carboxylic Acid]
1 to 5 | – | Cc1c(COc2cc(OCc3cncc(C#N)c3)c(CNC(CO)CO)cc2Cl)cccc1-c1ccc2oc(N3CCN(C)CC3)nc2c1 [Example 2008]
0.18 to 0.99 | – | Cc1c(COc2cc(OCc3cncc(C#N)c3)c(CNC(C)(CO)CO)cc2Cl)cccc1-c1ccc2oc(N3CCN(C)CC3)nc2c1 [Example 2009]
1 to 5 | – | Cc1c(COc2cc(OCc3cncc(C#N)c3)c(CN[C@@H](CO)C(=O)O)cc2Cl)cccc1-c1ccc2oc(N3CCN(C)CC3)nc2c1 [Example 2010, (5-chloro-2-((5-cyanopyridin-3-yl)methoxy)-4-((2-methyl-3-(2-(4-methylpiperazin-1-yl)benzo[d]oxazol-5-yl)benzyl)oxy)benzyl)-L-serine]
1 to 5 | – | Cc1c(COc2cc(OCc3cncc(C#N)c3)c(CN[C@@](C)(CO)C(=O)O)cc2Cl)cccc1-c1ccc2oc(N3CCN(C)CC3)nc2c1 [Example 2011, (S)-2-((5-chloro-2-((5-cyanopyridin-3-yl)methoxy)-4-((2-methyl-3-(2-(4-methylpiperazin-1-yl)benzo[d]oxazol-5-yl)benzyl)oxy)benzyl)amino)-3-hydroxy-2-methylpropanoic Acid]
– | 7.2 | CCC[C@H](NCc1cc(Cl)c(OCc2cccc(-c3ccc4oc(N5CCN(C)CC5)nc4c3)c2C)cc1OCc1cncc(C#N)c1)C(=O)O [Example 2012, (S)-2-((5-chloro-2-((5-cyanopyridin-3-yl)methoxy)-4-((2-methyl-3-(2-(4-methylpiperazin-1-yl)benzo[d]oxazol-5-yl)benzyl)oxy)benzyl)amino)pentanoic Acid]
1 to 5 | – | Cc1c(COc2cc(OCc3cncc(C#N)c3)c(CN[C@H](C(=O)O)C(C)C)cc2Cl)cccc1-c1ccc2oc(N3CCN(C)CC3)nc2c1 [Example 2013, (S)-2-((5-chloro-2-((5-cyanopyridin-3-yl)methoxy)-4-((2-methyl-3-(2-(4-methylpiperazin-1-yl)benzo[d]oxazol-5-yl)benzyl)oxy)benzyl)amino)-3-methylbutanoic Acid]
1 to 5 | – | Cc1c(COc2cc(OCc3cncc(C#N)c3)c(CN(C)C(CO)CO)cc2Cl)cccc1-c1ccc2oc(N3CCN(C)CC3)nc2c1 [Example 2014]
0.18 to 0.99 | – | Cc1c(COc2cc(OCc3cncc(C#N)c3)c(CN(C)C(C)(CO)CO)cc2Cl)cccc1-c1ccc2oc(N3CCN(C)CC3)nc2c1 [Example 2015]
1 to 5 | – | Cc1c(COc2cc(OCc3cncc(C#N)c3)c(CN(C)[C@@H](CO)C(=O)O)cc2Cl)cccc1-c1ccc2oc(N3CCN(C)CC3)nc2c1 [Example 2016, N-(5-chloro-2-((5-cyanopyridin-3-yl)methoxy)-4-((2-methyl-3-(2-(4-methylpiperazin-1-yl)benzo[d]oxazol-5-yl)benzyl)oxy)benzyl)-N-methyl-L-serine]
0.18 to 0.99 | – | Cc1c(COc2cc(OCc3cncc(C#N)c3)c(CN(C)[C@@](C)(CO)C(=O)O)cc2Cl)cccc1-c1ccc2oc(N3CCN(C)CC3)nc2c1 [Example 2017, (S)-2-((5-chloro-2-((5-cyanopyridin-3-yl)methoxy)-4-((2-methyl-3-(2-(4-methylpiperazin-1-yl)benzo[d]oxazol-5-yl)benzyl)oxy)benzyl)(methyl)amino)-3-hydroxy-2-methylpropanoic Acid]
1 to 5 | – | CCC[C@@H](C(=O)O)N(C)Cc1cc(Cl)c(OCc2cccc(-c3ccc4oc(N5CCN(C)CC5)nc4c3)c2C)cc1OCc1cncc(C#N)c1 [Example 2018, (S)-2-((5-chloro-2-((5-cyanopyridin-3-yl)methoxy)-4-((2-methyl-3-(2-(4-methylpiperazin-1-yl)benzo[d]oxazol-5-yl)benzyl)oxy)benzyl)(methyl)amino)pentanoic Acid]
